System: ALK-positive or ROS1-positive advanced non-small cell lung cancer
Assay: Phase I clinical trial, dose escalation and expansion phases: efficacy (RECIST 1.1)
Type: in vivo, human
Procedure: The anti-tumor efficacy is evaluated according to RECIST version 1.1. For patients initially evaluated as having a complete response (CR) or partial response (PR), efficacy should be confirmed at least 4 weeks later. In the patients with asymptomatic central nervous system (CNS) metastases, in addition to evaluating 5 extracranial target lesions, up to 5 intracranial target lesions will also be evaluated. The specific indicators are as follows:
"CR" is defined as the disappearance of all target lesions, and the diameters of the short axis of all the pathological lymph nodes (whether target or non-target lymph nodes) must be reduced to 10 mm or less.
"PR" is defined as a reduction of at least 30% in the total diameter of the target lesions, with the total diameter of the baseline as a reference value.
"PD" is defined as an increase of at least 20% in the total diameter of the target lesions, using the minimum total diameter in the study as a reference value (this value may include the total diameter of the baseline). In addition, the absolute value of the total diameter must increase by at least 5 mm (the appearance of one or more new lesions is also considered as progressive disease).
"SD" is defined as a state in which the reduction in target lesions is insufficient to achieve partial response and the increase is insufficient to achieve progressive disease.
"ORR" includes CR and PR, and is defined as the proportion of patients who achieve complete response or partial response.
"IC-ORR" includes CR or PR for confirmed intracranial lesions, and is defined as the proportion of the patients with complete response or partial response of intracranial lesions among the patients with intracranial lesions.
"DCR" is defined as the proportion of the patients who achieve response (PR+CR) and stable disease (SD) after a treatment.
"IC-DCR" is defined as the proportion of the patients who achieve intracranial response (PR+CR), intracranial stable disease (SD), and […] after a treatment among the patients with intracranial lesions.
"DOR" is defined as the time from the first assessment of CR or PR to progressive disease or death, and is only applicable to the patients who achieve response.
"IC-DOR" is defined as the time from the first assessment of intracranial CR or intracranial PR to progressive disease or death, and is only applicable to the patients whose intracranial lesions achieve response.
"TTR" is defined as the time from patient enrollment (first dose of investigational drug) to tumor response (CR/PR), based on the patients with objective response.
"IC-TTR" is defined as the time from patient enrollment (first dose of investigational drug) to intracranial tumor response (IC-CR/PR), based on the patients with intracranial objective response.
Approximately eight dose groups in total were set in the dose escalation phase, which were 5 (the starting dose), 10, 20, 40, 60, 80, 100, and 125 mg, respectively. Subjects in all the dose groups received a single dose on day 1 (D1), and the blood samples were collected for pharmacokinetic (PK) assay and tolerability observation. If no grade 2 or a higher-level adverse event related to the investigational drug occurred during the single-dose period (5 to 7 days) (if such events occurred, dose adjustments would be made based on the toxicity according to the protocol), the subject entered the multiple-dose period (i.e., treatment period) 5 to 7 days later (7 days after the first administration in the first dose group (i.e., starting the multiple-dose treatment on day 8), and the intervals for the subsequent dose groups were determined based on the obtained tolerability and PK data). […]

[2H]C([2H])([2H])n1nc2c(c1C#N)-c1cnc(N)c(c1)O[C@H](C)c1cc(F)ccc1C(=O)N(C)C2 [compound A, (10R)-7-amino-12-fluoro-2-(methyl-d3)-10,16-dimethyl-15-oxo-10,15,16,17-tetrahydro-2H-8,4-(metheno)pyrazolo[4,3-h][2,5,11]benzoxadiazacyclotetradecine-3-carbonitrile]
BOR CR (intracranial, 10mg (N=1)): 0 n (%)
BOR NE (intracranial, 10mg (N=1)): 0 n (%)
BOR PD (intracranial, 10mg (N=1)): 0 n (%)
BOR PR (intracranial, 10mg (N=1)): 1 (100) n (%)
BOR SD (intracranial, 10mg (N=1)): 0 n (%)
Confirmed IC-ORR (95% CI) (intracranial, 10mg (N=1)): 1 (100) (2.5, 100.0) n (%)
IC-DCR (95% CI) (intracranial, 10mg (N=1)): 1 (100) (2.5, 100.0) n (%)
Median IC-DOR (95% CI) (intracranial, 10mg (N=1)): 5.55 (-, -) months
Median IC-TTR (range) (intracranial, 10mg (N=1)): 1.35 (1.35, 1.35) months
BOR CR (intracranial, 20mg (N=1)): 0 n (%)
BOR NE (intracranial, 20mg (N=1)): 0 n (%)
BOR PD (intracranial, 20mg (N=1)): 0 n (%)
BOR PR (intracranial, 20mg (N=1)): 1 (100) n (%)
BOR SD (intracranial, 20mg (N=1)): 0 n (%)
Confirmed IC-ORR (95% CI) (intracranial, 20mg (N=1)): 1 (100) (2.5, 100.0) n (%)
IC-DCR (95% CI) (intracranial, 20mg (N=1)): 1 (100) (2.5, 100.0) n (%)
Median IC-TTR (range) (intracranial, 20mg (N=1)): 1.35 (1.35, 1.35) months
BOR CR (intracranial, 40mg (N=4)): 0 n (%)
BOR NE (intracranial, 40mg (N=4)): 1 (25.0) n (%)
BOR PD (intracranial, 40mg (N=4)): 0 n (%)
BOR PR (intracranial, 40mg (N=4)): 0 n (%)
BOR SD (intracranial, 40mg (N=4)): 3 (75.0) n (%)
Confirmed IC-ORR (95% CI) (intracranial, 40mg (N=4)): 0 (0.0, 60.2) n (%)
IC-DCR (95% CI) (intracranial, 40mg (N=4)): 3 (75.0) (19.4, 99.4) n (%)
BOR CR (intracranial, 60mg (N=2)): 0 n (%)
BOR NE (intracranial, 60mg (N=2)): 0 n (%)
BOR PD (intracranial, 60mg (N=2)): 0 n (%)
BOR PR (intracranial, 60mg (N=2)): 2 (100) n (%)
BOR SD (intracranial, 60mg (N=2)): 0 n (%)
Confirmed IC-ORR (95% CI) (intracranial, 60mg (N=2)): 2 (100) (15.8, 100.0) n (%)
IC-DCR (95% CI) (intracranial, 60mg (N=2)): 2 (100) (15.8, 100.0) n (%)
Median IC-DOR (95% CI) (intracranial, 60mg (N=2)): 17.97 (-, -) months
Median IC-TTR (range) (intracranial, 60mg (N=2)): 4.11 (1.35, 6.87) months
BOR CR (intracranial, 80mg (N=4)): 0 n (%)
BOR NE (intracranial, 80mg (N=4)): 1 (25.0) n (%)
BOR PD (intracranial, 80mg (N=4)): 0 n (%)
BOR PR (intracranial, 80mg (N=4)): 1 (25.0) n (%)
BOR SD (intracranial, 80mg (N=4)): 2 (50.0) n (%)
Confirmed IC-ORR (95% CI) (intracranial, 80mg (N=4)): 1 (25.0) (0.6, 80.6) n (%)
IC-DCR (95% CI) (intracranial, 80mg (N=4)): 3 (75.0) (19.4, 99.4) n (%)
Median IC-TTR (range) (intracranial, 80mg (N=4)): 1.51 (1.51, 1.51) months
BOR CR (intracranial, 100mg (N=2)): 0 n (%)
BOR NE (intracranial, 100mg (N=2)): 0 n (%)
BOR PD (intracranial, 100mg (N=2)): 0 n (%)
BOR PR (intracranial, 100mg (N=2)): 0 n (%)
BOR SD (intracranial, 100mg (N=2)): 2 (100) n (%)
Confirmed IC-ORR (95% CI) (intracranial, 100mg (N=2)): 0 (0.0, 84.2) n (%)
IC-DCR (95% CI) (intracranial, 100mg (N=2)): 2 (100) (15.8, 100.0) n (%)
BOR CR (intracranial, 125mg (N=1)): 0 n (%)
BOR NE (intracranial, 125mg (N=1)): 0 n (%)
BOR PD (intracranial, 125mg (N=1)): 0 n (%)
BOR PR (intracranial, 125mg (N=1)): 0 n (%)
BOR SD (intracranial, 125mg (N=1)): 1 (100) n (%)
Confirmed IC-ORR (95% CI) (intracranial, 125mg (N=1)): 0 (0.0, 97.5) n (%)
IC-DCR (95% CI) (intracranial, 125mg (N=1)): 1 (100) (2.5,100.0) n (%)
BOR CR (systemic, 5mg (N=1)): 0 n (%)
BOR NE (systemic, 5mg (N=1)): 0 n (%)
BOR PD (systemic, 5mg (N=1)): 0 n (%)
BOR PR (systemic, 5mg (N=1)): 0 n (%)
BOR SD (systemic, 5mg (N=1)): 1 (100) n (%)
Confirmed ORR (95% CI) (systemic, 5mg (N=1)): 0 (0.0, 97.5) n (%)
DCR (95% CI) (systemic, 5mg (N=1)): 1 (100) (2.5, 100.0) n (%)
BOR CR (systemic, 10mg (N=1)): 0 n (%)
BOR NE (systemic, 10mg (N=1)): 0 n (%)
BOR PD (systemic, 10mg (N=1)): 0 n (%)
BOR PR (systemic, 10mg (N=1)): 0 n (%)
BOR SD (systemic, 10mg (N=1)): 1 (100) n (%)
Confirmed ORR (95% CI) (systemic, 10mg (N=1)): 0 (0.0, 97.5) n (%)
DCR (95% CI) (systemic, 10mg (N=1)): 1 (100) (2.5, 100.0) n (%)
BOR CR (systemic, 20mg (N=1)): 0 n (%)
BOR NE (systemic, 20mg (N=1)): 0 n (%)
BOR PD (systemic, 20mg (N=1)): 0 n (%)
BOR PR (systemic, 20mg (N=1)): 1 (100) n (%)
BOR SD (systemic, 20mg (N=1)): 0 n (%)
Confirmed ORR (95% CI) (systemic, 20mg (N=1)): 1 (100) (2.5, 100.0) n (%)
DCR (95% CI) (systemic, 20mg (N=1)): 1 (100) (2.5, 100.0) n (%)
Median DOR (95% CI) (systemic, 20mg (N=1)): 6.93 (-, -) months
Median TTR (range) (systemic, 20mg (N=1)): 1.35 (1.35, 1.35) months
BOR CR (systemic, 40mg (N=10)): 0 n (%)
BOR NE (systemic, 40mg (N=10)): 2 (20.0) n (%)
BOR PD (systemic, 40mg (N=10)): 2 (20.0) n (%)
BOR PR (systemic, 40mg (N=10)): 1 (10.0) n (%)
BOR SD (systemic, 40mg (N=10)): 5 (50.0) n (%)
Confirmed ORR (95% CI) (systemic, 40mg (N=10)): 1 (10.0) (0.3, 44.5) n (%)
DCR (95% CI) (systemic, 40mg (N=10)): 6 (60.0) (26.2, 87.8) n (%)
Median TTR (range) (systemic, 40mg (N=10)): 2.73 (2.73, 2.73) months
BOR CR (systemic, 60mg (N=12)): 0 n (%)
BOR NE (systemic, 60mg (N=12)): 0 n (%)
BOR PD (systemic, 60mg (N=12)): 1 (8.3) n (%)
BOR PR (systemic, 60mg (N=12)): 6 (50.0) n (%)
BOR SD (systemic, 60mg (N=12)): 5 (41.7) n (%)
Confirmed ORR (95% CI) (systemic, 60mg (N=12)): 6 (50.0) (21.1, 78.9) n (%)
DCR (95% CI) (systemic, 60mg (N=12)): 11 (91.7) (61.5, 99.8) n (%)
Median DOR (95% CI) (systemic, 60mg (N=12)): 12.45 (2.79, -) months
Median TTR (range) (systemic, 60mg (N=12)): 1.35 (1.35, 6.90) months
BOR CR (systemic, 80mg (N=11)): 0 n (%)
BOR NE (systemic, 80mg (N=11)): 1 (9.1) n (%)
BOR PD (systemic, 80mg (N=11)): 1 (9.1) n (%)
BOR PR (systemic, 80mg (N=11)): 4 (36.4) n (%)
BOR SD (systemic, 80mg (N=11)): 5 (45.5) n (%)
Confirmed ORR (95% CI) (systemic, 80mg (N=11)): 4 (36.4) (10.9, 69.2) n (%)
DCR (95% CI) (systemic, 80mg (N=11)): 9 (81.8) (48.2, 97.7) n (%)
Median DOR (95% CI) (systemic, 80mg (N=11)): 12.48 (7.98, -) months
Median TTR (range) (systemic, 80mg (N=11)): 1.45 (1.35, 13.96) months
BOR CR (systemic, 100mg (N=3)): 0 n (%)
BOR NE (systemic, 100mg (N=3)): 0 n (%)
BOR PD (systemic, 100mg (N=3)): 0 n (%)
BOR PR (systemic, 100mg (N=3)): 2 (66.7) n (%)
BOR SD (systemic, 100mg (N=3)): 1 (33.3) n (%)
Confirmed ORR (95% CI) (systemic, 100mg (N=3)): 2 (66.7) (9.4, 99.2) n (%)
DCR (95% CI) (systemic, 100mg (N=3)): 3 (100) (29.2, 100.0) n (%)
Median DOR (95% CI) (systemic, 100mg (N=3)): 5.57 (4.17, -) months
Median TTR (range) (systemic, 100mg (N=3)): 2.05 (1.35, 2.76) months
BOR CR (systemic, 125mg (N=3)): 0 n (%)
BOR NE (systemic, 125mg (N=3)): 0 n (%)
BOR PD (systemic, 125mg (N=3)): 1 (33.3) n (%)
BOR PR (systemic, 125mg (N=3)): 1 (33.3) n (%)
BOR SD (systemic, 125mg (N=3)): 1 (33.3) n (%)
Confirmed ORR (95% CI) (systemic, 125mg (N=3)): 1 (33.3) (0.8, 90.6) n (%)
DCR (95% CI) (systemic, 125mg (N=3)): 2 (66.7) (9.4, 99.2) n (%)
Median DOR (95% CI) (systemic, 125mg (N=3)): 9.53 (-, -) months
Median TTR (range) (systemic, 125mg (N=3)): 1.38 (1.38, 1.38) months

Reference: patent EP4810038A1, “METHOD FOR TREATING ALK-POSITIVE OR ROS1-POSITIVE NON-SMALL CELL LUNG CANCER” (Shenzhen TargetRx Co., Ltd., priority 2023, dated 2025)
